{"source": "patent US9914707B2", "about": "“Naphthylamide compound, preparation method and use thereof” (SHANGHAI INSTITUTE OF MATERIA MEDICA, CHINESE ACADEMY OF …, priority 2014, dated 2018)", "system": "VEGF-induced human umbilical vein endothelial cells (HUVEC) proliferation", "experiment": "VEGF-induced human umbilical vein endothelial cells (HUVEC) proliferation (SRB)", "format": "cell-based", "conditions": "for cell activity compared with positive control compound ABT869: VEGF-induced HUVEC proliferation", "description": "5000-8000 primary HUVEC cells before 5-15 doublings were seeded to each well of 96-well plate and each well contained 90 μl. The cells were cultured overnight and then starved with 90 μl/well serum-free basal culture medium for 24 h. Then 10 μl different concentration of compound was added to each well. Five concentrations were set and each concentration had 3 wells. After 2 h, 100 ng/mL of VEGF growth-stimulating factor was added. After 48 h, the medium was discarded, the cells were fixed with pre-cooled 10% TCA at 4° C. for 1 h, then washed with distilled water five times and dried in air. Then 100 μl of 4 mg/ml of sulforodamine B (SRB) solution prepared from 1% acetic acid was added to each well to dye 15 minutes at room temperature. The staining solution was discarded and each well was washed with 1% acetic acid five times and then dried in air. Finally, each well was added with 150 μl Tris-HCl solution (10 mM Tris, pH 10.0) and absorbance OD values at 560 nm were measured by microplate reader. Inhibition rate of the compound on HUVEC cell proliferation was measured to reflect VEGF-mediated proliferation inhibition effect of compound.\nInhibition rate of the compound was obtained by the following formula: […]\nIC50 values were calculated by inhibition curves with four parameters fitting.", "data": [{"smiles": "Cc1ccc(F)c(NC(=O)Nc2ccc(-c3cccc4[nH]nc(N)c34)cc2)c1", "note": "[ABT869, reference compound]", "values": [{"measurement": "IC50", "setting": "Homo sapiens, primary HUVEC, 100 ng/mL VEGF, 48 h, SRB, read-out: Half inhibitory concentration for VEGF-induced HUVEC proliferation, IC50", "result": 2.32, "unit": "nM"}]}, {"smiles": "Cc1ccc(NC(=O)c2cccc3cc(-c4cccc5[nH]nc(N)c45)ccc23)cc1", "note": "[Compound I-8, 6-(3-amino-1H-indazol-4-yl)-N-(p-methylphenyl)-1-naphthalenecarboxamide]", "values": [{"measurement": "cell activity compared with positive control compound ABT869", "result": "stronger than that of positive control compound ABT869"}]}, {"smiles": "CCc1cccc(NC(=O)c2cccc3cc(-c4cccc5[nH]nc(N)c45)ccc23)c1", "note": "[Compound I-9, 6-(3-amino-1H-indazol-4-yl)-N-(3-ethylphenyl)-1-naphthalenecarboxamide]", "values": [{"measurement": "cell activity compared with positive control compound ABT869", "result": "stronger than that of positive control compound ABT869"}]}, {"smiles": "Nc1n[nH]c2cccc(-c3ccc4c(C(=O)Nc5cc(F)cc(F)c5)cccc4c3)c12", "note": "[Compound I-14, 6-(3-amino-1H-indazol-4-yl)-N-(3,5-difluorophenyl)-1-naphthalenecarboxamide]", "values": [{"measurement": "cell activity compared with positive control compound ABT869", "result": "stronger than that of positive control compound ABT869"}]}, {"smiles": "Cc1cc(NC(=O)c2cccc3cc(-c4cccc5[nH]nc(N)c45)ccc23)ccc1F", "note": "[Compound I-21, 6-(3-amino-1H-indazol-4-yl)-N-(4-fluoro-3-methylphenyl)-1-naphthalenecarboxamide]", "values": [{"measurement": "cell activity compared with positive control compound ABT869", "result": "stronger than that of positive control compound ABT869"}]}]}
